{"source": "paper PMC7215935", "about": "“GM1 Oligosaccharide Crosses the Human Blood–Brain Barrier In Vitro by a Paracellular Route” (International Journal of Molecular Sciences, 2020)", "system": "P-gp/BCRP", "assay": "ABC transporter competition assay (Caco-2 pump out), R123 efflux", "settings": "Caco-2 cells, 10, 50 and 100 μM, vs control", "protocol": "Briefly, Caco-2 cells in 96-well plates were washed once with RH buffer and incubated for 120 min with 10 µM R123 or for 15 min with 0.5 µM CMFDA. R123 and CMFD are substrates for the major efflux pumps expressed by BBB and intestine cells, i.e., P-gp/BCRP and MRPs, respectively. After the incubation period, Caco-2 cells were washed twice with RH buffer with or without test compounds (OligoGM1 at 10, 50, and 100 µM). The rate out (Kout) of Caco-2 cells for fluorescent dyes was monitored by fluorescence measurement (λex = 501 nm and λem = 538 nm for R123; λex = 485 nm and λem = 538 nm for CMFDA) using a microplate fluorescent reader (BioTek, H1, Vermont, Winooski). The amount of dye expelled from the cells was measured at 37 °C and every 5 min for one hour for R123 and every 2 min for 30 min for CMFDA. The rate out of the dye from cells was calculated as the slope of the curve of the cumulative amount of dye against the time (Kout = ∆pmol⁄∆t) and compared with the value in the presence of test compounds.", "data": [{"smiles": "CC(=O)NC1C(O)CC(OC2C(O)C(OC3C(CO)OC(O)C(O)C3O)OC(CO)C2OC2OC(CO)C(O)C(OC3OC(CO)C(O)C(O)C3O)C2NC(C)=O)(C(=O)O)OC1C(O)C(O)CO", "note": "(stereo not drawn) [OligoGM1, β-Gal-(1-3)-β-GalNAc-(1-4)-[α-Neu5Ac-(2-3)]-β-Gal-(1-4)-β-Glc]", "values": [{"measurement": "effect on efflux (Kout) of R123", "value": "did not identify any difference"}]}]}
